Reference: patent US11311568B2, “Therapeutic pharmaceutical composition for cancer including miRNA” (Purmx Therapeutics, Inc., priority 2017, dated 2022)

Experiments:
Experiment in all cases: Screening in cancer cell strains, cell survival rate with PrestoBlue
Type in all cases: cell-based
[1] = system: pancreatic cancer cell strain BxPC-3; conditions: BxPC-3, Day 5 after transfection with RNAiMAX, compared with miR-34a-5p
Procedure: (§1) The 349 types of aging induction miRNA (mirVana; Ambion) obtained from screening were transfected into various cancer cell strains (large intestine cancer cell strain HCT116 (p53 wildtype and p53 deletion), pancreatic cancer cell strains BxPC-3 and CFPAC-1, and tongue cancer cell strain HSC-4) with an auto dispenser Bravo (Agilent).
(§2) Transfection was carried out with the following protocol.
(§3) 1: To 70 μL of serum free medium (SFM) was added 0.35 μL of RNAiMAX (Invitrogen).
(§4) 2: The solution from 1 was added to a 96-well plate (μ-plate; ibidi) with Bravo.
(§5) 3: To 2 was added 0.7 μL of miRNA (Stock Conc. 200 nM) with Bravo, and this was mixed by pipetting.
(§6) 4: This was incubated at room temperature for 20 minutes.
(§7) 5: A cell suspension diluted to 3.5×10^4 cells/mL was dispensed at 70 μL each with Bravo.
(§8) 6: This was incubated at 37° C. under 5% CO2 condition.
(§9) Setting the day of transfection as Day 0, on Day 5 the cell survival rate was evaluated with PrestoBlue (Invitrogen). The operating protocol is shown below.
(§10) 1. The medium was exchanged to a medium comprising PrestoBlue diluted 20-folds, and this was incubated at 37° C. for 1 hour. 2. The fluorescence value (Ex/Em=560 nm/590 nm) was measured with Enspire (Perkin Elmer).
(§11) 3. The cell survival rate was determined by setting the fluorescence value obtained from the well with only the reagent as the background.

[2] = system: large intestine cancer cell strain HCT116 (p53 deletion); conditions: Day 5 after transfection with RNAiMAX, compared with miR-34a-5p
Procedure: as §1, §2, §3, §4, §5, §6, §7, §8, §9, §10, §11

[3] = system: pancreatic cancer cell strain CFPAC-1; conditions: CFPAC-1, Day 5 after transfection with RNAiMAX, compared with miR-34a-5p
Procedure: as §1, §2, §3, §4, §5, §6, §7, §8, §9, §10, §11

[4] = system: tongue cancer cell strain HSC-4; conditions: HSC-4, Day 5 after transfection with RNAiMAX, compared with miR-34a-5p
Procedure: as §1, §2, §3, §4, §5, §6, §7, §8, §9, §10, §11

[5] = system: large intestine cancer cell strain HCT116 (p53 wildtype); conditions: Day 5 after transfection with RNAiMAX, compared with miR-34a-5p
Procedure: as §1, §2, §3, §4, §5, §6, §7, §8, §9, §10, §11

Row | Substance | suppression of cell proliferation (cell survival rate, PrestoBlue) [1] | suppression of cell proliferation (cell survival rate, PrestoBlue) [2] | suppression of cell proliferation (cell survival rate, PrestoBlue) [3] | suppression of cell proliferation (cell survival rate, PrestoBlue) [4] | suppression of cell proliferation (cell survival rate, PrestoBlue) [5]
1 | miR-137-3p: Mature-miRNA, UUAUUGCUUAAGAAUACGCGUAG (SEQ ID NO. 5) (listed as RNA, chemistry not given here; listed as Homo sapiens) | suppress cell proliferation more significantly than miR-34-5p | suppress cell proliferation more significantly than miR-34-5p | suppress cell proliferation more significantly than miR-34-5p | suppress cell proliferation more significantly than miR-34-5p | suppress cell proliferation more significantly than miR-34-5p
2 | miR-631-5p: Mature-miRNA, AGACCUGGCCCAGACCUCAGC (SEQ ID NO. 8) (listed as RNA, chemistry not given here; listed as Homo sapiens) | suppress cell proliferation more significantly than miR-34-5p | suppress cell proliferation more significantly than miR-34-5p | suppress cell proliferation more significantly than miR-34-5p | suppress cell proliferation more significantly than miR-34-5p | suppress cell proliferation more significantly than miR-34-5p
3 | miR-657-3p: Mature-miRNA, GGCAGGUUCUCACCCUCUCUAGG (SEQ ID NO. 11) (listed as RNA, chemistry not given here; listed as Homo sapiens) | suppress cell proliferation more significantly than miR-34-5p | suppress cell proliferation more significantly than miR-34-5p | suppress cell proliferation more significantly than miR-34-5p | suppress cell proliferation more significantly than miR-34-5p | suppress cell proliferation more significantly than miR-34-5p
